Assay results: ChEMBL document CHEMBL3885881, “DrugMatrix”

Organism: Rattus norvegicus
Experiment: DrugMatrix - Regimen: Daily Repeat
Type: toxicity, organism-based, Sprague-Dawley
Design: regimen Daily Repeat, gender Male, age 6-8 weeks
Conditions: in vivo, po, route oral GAVAGE, vehicle .5 % CMC; for ABSOLUTE BASOPHIL / ABSOLUTE EOSINOPHIL / ABSOLUTE LYMPHOCYTE / ABSOLUTE MONOCYTE / ABSOLUTE SEGMENTED NEUTROPHIL / BASOPHIL / EOSINOPHIL / ERYTHROCYTE COUNT / HEMATOCRIT / HEMOGLOBIN / LEUKOCYTE COUNT / LYMPHOCYTE / MEAN CORPUSCULAR HEMOGLOBIN / MEAN CORPUSCULAR HEMOGLOBIN CONCENTRATION / MEAN CORPUSCULAR VOLUME / MONOCYTE / NEUTROPHIL / NUCLEATED RED BLOOD CELLS / PLATELET COUNT: tissue Blood; for ALANINE AMINOTRANSFERASE / ALBUMIN / ALKALINE PHOSPHATASE / ASPARTATE AMINOTRANSFERASE / BLOOD UREA NITROGEN / CARBON DIOXIDE / CHLORIDE / CHOLESTEROL / CREATINE PHOSPHOKINASE / CREATININE / LACTATE DEHYDROGENASE / LIPASE / PHOSPHORUS / SODIUM / TOTAL BILIRUBIN / TOTAL PROTEIN / URIC ACID: tissue Plasma
[1] = 29 mg/kg, 72 h, dose level Low, time 3 day
[2] = 29 mg/kg, 120 h, dose level Low, time 5 day
[3] = 1169 mg/kg, 72 h, dose level High, time 3 day
[4] = 1169 mg/kg, 120 h, dose level High, time 5 day

Structure (SMILES): Nc1nc(O)c2ncn(COC(CO)CO)c2n1 [GANCICLOVIR]
- ABSOLUTE BASOPHIL [1]: 0 CELLS/uL
- ABSOLUTE EOSINOPHIL [1]: 152 CELLS/uL
- ABSOLUTE LYMPHOCYTE [1]: 12965 CELLS/uL
- ABSOLUTE MONOCYTE [1]: 505.67 CELLS/uL
- ABSOLUTE SEGMENTED NEUTROPHIL [1]: 1544 CELLS/uL
- BASOPHIL [1]: 0%
- EOSINOPHIL [1]: 1%
- ERYTHROCYTE COUNT [1]: 5.64 x10E6/uL
- HEMATOCRIT [1]: 35.17%
- HEMOGLOBIN [1]: 13.17 G/DL
- LEUKOCYTE COUNT [1]: 15.17 x10E3/uL
- LYMPHOCYTE [1]: 85.67%
- MEAN CORPUSCULAR HEMOGLOBIN [1]: 23.37 pg
- MEAN CORPUSCULAR HEMOGLOBIN CONCENTRATION [1]: 37.47 G/DL
- MEAN CORPUSCULAR VOLUME [1]: 62.37 fL
- MONOCYTE [1]: 3.33%
- NEUTROPHIL [1]: 10%
- NUCLEATED RED BLOOD CELLS [1]: 0 /100WBC
- PLATELET COUNT [1]: 1360 x10E3/uL
- ALANINE AMINOTRANSFERASE [1]: 48 u/L
- ALBUMIN [1]: 4.17 G/DL
- ALKALINE PHOSPHATASE [1]: 319.67 u/L
- ASPARTATE AMINOTRANSFERASE [1]: 96 u/L
- BLOOD UREA NITROGEN [1]: 18 mg/dL
- CARBON DIOXIDE [1]: 24 mmol/L
- CHLORIDE [1]: 103 MEQ/L
- CHOLESTEROL [1]: 67.67 mg/dL
- CREATINE PHOSPHOKINASE [1]: 635.33 u/L
- CREATININE [1]: 0.21 mg/dL
- LACTATE DEHYDROGENASE [1]: 646.33 u/L
- LIPASE [1]: 8.67 u/L
- PHOSPHORUS [1]: 14.2 mg/dL
- SODIUM [1]: 145.5 MEQ/L
- TOTAL BILIRUBIN [1]: 0.2 mg/dL
- TOTAL PROTEIN [1]: 5.9 G/DL
- URIC ACID [1]: 2.23 mg/dL
- ABSOLUTE BASOPHIL [2]: 0 CELLS/uL
- ABSOLUTE EOSINOPHIL [2]: 86.67 CELLS/uL
- ABSOLUTE LYMPHOCYTE [2]: 11979.33 CELLS/uL
- ABSOLUTE MONOCYTE [2]: 137.33 CELLS/uL
- ABSOLUTE SEGMENTED NEUTROPHIL [2]: 1530 CELLS/uL
- BASOPHIL [2]: 0%
- EOSINOPHIL [2]: 0.67%
- ERYTHROCYTE COUNT [2]: 5.69 x10E6/uL
- HEMATOCRIT [2]: 35.37%
- HEMOGLOBIN [2]: 13.23 G/DL
- LEUKOCYTE COUNT [2]: 13.73 x10E3/uL
- LYMPHOCYTE [2]: 87%
- MEAN CORPUSCULAR HEMOGLOBIN [2]: 23.27 pg
- MEAN CORPUSCULAR HEMOGLOBIN CONCENTRATION [2]: 37.47 G/DL
- MEAN CORPUSCULAR VOLUME [2]: 62.13 fL
- MONOCYTE [2]: 1%
- NEUTROPHIL [2]: 11.33%
- NUCLEATED RED BLOOD CELLS [2]: 0 /100WBC
- PLATELET COUNT [2]: 1168 x10E3/uL
- ALANINE AMINOTRANSFERASE [2]: 47.67 u/L
- ALBUMIN [2]: 4.2 G/DL
- ALKALINE PHOSPHATASE [2]: 323 u/L
- ASPARTATE AMINOTRANSFERASE [2]: 91.67 u/L
- BLOOD UREA NITROGEN [2]: 19.33 mg/dL
- CARBON DIOXIDE [2]: 25.33 mmol/L
- CHLORIDE [2]: 106.33 MEQ/L
- CHOLESTEROL [2]: 74.67 mg/dL
- CREATINE PHOSPHOKINASE [2]: 428.33 u/L
- CREATININE [2]: 0.15 mg/dL
- LACTATE DEHYDROGENASE [2]: 720 u/L
- LIPASE [2]: 8.67 u/L
- PHOSPHORUS [2]: 11.4 mg/dL
- SODIUM [2]: 145.9 MEQ/L
- TOTAL BILIRUBIN [2]: 0.13 mg/dL
- TOTAL PROTEIN [2]: 5.77 G/DL
- URIC ACID [2]: 0.83 mg/dL
- ABSOLUTE BASOPHIL [3]: 0 CELLS/uL
- ABSOLUTE EOSINOPHIL [3]: 180.33 CELLS/uL
- ABSOLUTE LYMPHOCYTE [3]: 12632.33 CELLS/uL
- ABSOLUTE MONOCYTE [3]: 432 CELLS/uL
- ABSOLUTE SEGMENTED NEUTROPHIL [3]: 1155.33 CELLS/uL
- BASOPHIL [3]: 0%
- EOSINOPHIL [3]: 1.67%
- ERYTHROCYTE COUNT [3]: 5.52 x10E6/uL
- HEMATOCRIT [3]: 33.9%
- HEMOGLOBIN [3]: 12.9 G/DL
- LEUKOCYTE COUNT [3]: 14.4 x10E3/uL
- LYMPHOCYTE [3]: 87%
- MEAN CORPUSCULAR HEMOGLOBIN [3]: 23.43 pg
- MEAN CORPUSCULAR HEMOGLOBIN CONCENTRATION [3]: 38.07 G/DL
- MEAN CORPUSCULAR VOLUME [3]: 61.57 fL
- MONOCYTE [3]: 3%
- NEUTROPHIL [3]: 8.33%
- NUCLEATED RED BLOOD CELLS [3]: 0.33 /100WBC
- PLATELET COUNT [3]: 1439 x10E3/uL
- ALANINE AMINOTRANSFERASE [3]: 45.33 u/L
- ALBUMIN [3]: 4.3 G/DL
- ALKALINE PHOSPHATASE [3]: 313.33 u/L
- ASPARTATE AMINOTRANSFERASE [3]: 76 u/L
- BLOOD UREA NITROGEN [3]: 19 mg/dL
- CARBON DIOXIDE [3]: 27.33 mmol/L
- CHLORIDE [3]: 103.67 MEQ/L
- CHOLESTEROL [3]: 79.67 mg/dL
- CREATINE PHOSPHOKINASE [3]: 222.33 u/L
- CREATININE [3]: 0.23 mg/dL
- LACTATE DEHYDROGENASE [3]: 239 u/L
- LIPASE [3]: 9 u/L
- PHOSPHORUS [3]: 12.3 mg/dL
- SODIUM [3]: 145.57 MEQ/L
- TOTAL BILIRUBIN [3]: 0.2 mg/dL
- TOTAL PROTEIN [3]: 5.93 G/DL
- URIC ACID [3]: 1.27 mg/dL
- ABSOLUTE BASOPHIL [4]: 0 CELLS/uL
- ABSOLUTE EOSINOPHIL [4]: 164.33 CELLS/uL
- ABSOLUTE LYMPHOCYTE [4]: 13318 CELLS/uL
- ABSOLUTE MONOCYTE [4]: 365.67 CELLS/uL
- ABSOLUTE SEGMENTED NEUTROPHIL [4]: 1652 CELLS/uL
- BASOPHIL [4]: 0%
- EOSINOPHIL [4]: 1%
- ERYTHROCYTE COUNT [4]: 5.49 x10E6/uL
- HEMATOCRIT [4]: 34.33%
- HEMOGLOBIN [4]: 13.13 G/DL
- LEUKOCYTE COUNT [4]: 15.5 x10E3/uL
- LYMPHOCYTE [4]: 86%
- MEAN CORPUSCULAR HEMOGLOBIN [4]: 23.93 pg
- MEAN CORPUSCULAR HEMOGLOBIN CONCENTRATION [4]: 38.27 G/DL
- MEAN CORPUSCULAR VOLUME [4]: 62.6 fL
- MONOCYTE [4]: 2.33%
- NEUTROPHIL [4]: 10.67%
- NUCLEATED RED BLOOD CELLS [4]: 0.33 /100WBC
- PLATELET COUNT [4]: 1216.67 x10E3/uL
- ALANINE AMINOTRANSFERASE [4]: 42.33 u/L
- ALBUMIN [4]: 4.2 G/DL
- ALKALINE PHOSPHATASE [4]: 345.33 u/L
- ASPARTATE AMINOTRANSFERASE [4]: 78.67 u/L
- BLOOD UREA NITROGEN [4]: 19.67 mg/dL
- CARBON DIOXIDE [4]: 29.33 mmol/L
- CHLORIDE [4]: 102.33 MEQ/L
- CHOLESTEROL [4]: 65.33 mg/dL
- CREATINE PHOSPHOKINASE [4]: 220 u/L
- CREATININE [4]: 0.18 mg/dL
- LACTATE DEHYDROGENASE [4]: 181 u/L
- LIPASE [4]: 8.67 u/L
- PHOSPHORUS [4]: 11.73 mg/dL
- SODIUM [4]: 145.77 MEQ/L
- TOTAL BILIRUBIN [4]: 0.13 mg/dL
- TOTAL PROTEIN [4]: 5.9 G/DL
- URIC ACID [4]: 1.43 mg/dL
